# Measured values as given in patent publication US12391679B2, “Benzamide-substituted bicyclic imidazo- and pyrazolo-fused -pyridine, -pyrimide, and -pyridazine compounds for treatment of inflammatory diseases” (ONCO3R Therapeutics BV, priority 2019, dated 2025).
# Legend:
# SIK1 = target: T1, SIK1 (Homo sapiens, UniProt P57059); test: 33P radioactive kinase assay, SIK1; type: biochemical
# T1 construct: purchased Carna Biosciences 02-131
# Outline: (§1)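 SIK1, SIK2 or SIK3 phosphorylation of AMARA peptide with [33P]-γ-ATP plus unlabeled ATP. 10-point 1/5 dilution series, 1% DMSO final; reactions stopped with phosphoric acid, filter-harvested and scintillation-counted. Percentage inhibition and average IC50 derived from dose-response curves.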
# SIK3 = target: T2, SIK3 (Homo sapiens, UniProt Q9Y2K2); test: 33P radioactive kinase assay, SIK3; type: biochemical; conditions: 33P radioactive assay; AMARA 7 μM; 15 μM ATP; 80 min; average IC50
# T2 construct: purchased SignalChem S12-11G-100
# T2 sequence (Q9Y2K2 59-365 limits assumed): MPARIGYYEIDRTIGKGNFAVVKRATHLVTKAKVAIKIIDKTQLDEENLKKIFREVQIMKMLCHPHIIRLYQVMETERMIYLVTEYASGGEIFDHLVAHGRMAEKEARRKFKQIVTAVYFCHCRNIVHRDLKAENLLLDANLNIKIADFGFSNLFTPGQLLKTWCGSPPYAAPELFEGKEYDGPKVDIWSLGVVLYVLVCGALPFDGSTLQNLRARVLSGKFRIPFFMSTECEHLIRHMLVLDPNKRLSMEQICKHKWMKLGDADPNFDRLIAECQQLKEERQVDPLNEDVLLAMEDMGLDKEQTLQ
# Outline: as §1
# B10.RIII mice, IL-23 EEV = test: Murine model of psoriatic arthritis induced by overexpression of IL-23; type: in vivo; conditions: mouse, IL-23 overexpression
# Excerpt: Mouse IL-23 enhanced episomal expression vector (EEV) was obtained from System Biosciences (Cat #EEV651A-1). Mouse IL-23 Quantikine ELISA Kits were obtained from R&D Systems (Cat #M2300). ProSense® 680 and OsteoSense® 750EX were obtained from PerkinElmer (Cat #NEV10003 and NEV10053EX). RNAlater® was obtained from Ambion (Cat #AM7021). Imalgene® 1000 (Merial) and Rompun® 2% (Bayer) were obtained from Centravet (Cat #IMA004-6827812 and ROM001-6835444).
# B10.RIII mice (male, 8-week old) were obtained from Charles River (Écully, France). Mice were kept on a 12 h light/dark cycle. Temperature was maintained at 22±2° C., food and water were provided ad libitum.
# The design of the study is adapted from Sherlock J P. et al. (Sherlock et al. 2012).
# On the first day (D1), the mice underwent a hydrodynamic injection of Ringer or IL-23 EEV in Ringer into the tail vein.
# As of D5, twice a week, the mice were scored for clinical symptoms until the end of the experiment.
# On D5, blood was collected by puncture in the submandibular vein to assess the serum IL-23 concentration.
# On D9, mice from all groups received ProSense® 680 probe (0.8 nmol/10 g, i.p.). On D10, the mice were anesthetized. Granulocyte infiltration was then measured using in vivo molecular imaging (Bruker In-Vivo Xtreme imaging system).
# On D11, randomization was performed according to ProSense® 680 molecular imaging and scoring.
# As of D12, mice were dosed with test compound or with vehicle.
# On D36, mice from all groups were sacrificed 2 h after last administration of compound.
# Twice weekly, clinical signs of inflammation were scored: 0 for normal paw; 1 if swelling of one digit; 2 if swelling of two or more digits; 3 if swelling of the entire paw. The scores of all limbs were summed up to produce a global score.
# There were 10 mice per group. The results are expressed as mean±SEM and statistical analysis is performed using one-way ANOVA followed by Dunnett's post-hoc test versus diseased vehicle group for scoring and imaging analysis, versus sham vehicle group for body weight.
# mouse CIA model = test: Collagen induced arthritis (CIA) model; type: in vivo
# Procedure: Completed Freund's adjuvant (CFA) and incomplete Freund's adjuvant (IFA) were purchased from Difco. Bovine collagen type II (CII), lipopolysaccharide (LPS), and Enbrel® (etanercept) were obtained from Chondrex (L'Isle d'Abeau, France); Sigma (P4252, L'Isle d'Abeau, France), Wyeth (25 mg injectable syringe, France), respectively. All other reagents used were of reagent grade and all solvents were of analytical grade.
# DBA1/J mice (male, 7-8 weeks old) were obtained from Charles River Laboratories (Écully, France). Mice were kept on a 12 h light/dark cycle. Temperature was maintained at 22° C., and food and water were provided ad libitum.
# One day before the experiment, CII solution (2 mg/mL) was prepared with 0.05 M AcOH and stored at 4° C. Just before the immunization, equal volumes of adjuvant (IFA) and CII were mixed by a homogenizer in a pre-cooled glass bottle in an ice water bath. Extra adjuvant and prolonged homogenization may be required if an emulsion is not formed. 0.2 mL of the emulsion was injected intradermally at the base of the tail of each mouse on day 1, a second booster intradermal injection (CII solution at 2 mg/mL in […] 0.1 mL saline) was performed on […]. This immunization method was modified from published methods (Jou et al. 2005; Sims et al. 2004).
# The therapeutic effects of the compounds were tested in the mouse CIA model. Mice were randomly divided into equal groups and each group contained 10 mice. All mice were immunized on day 1 and boosted on day 21. The negative control group was treated with vehicle (MC 0.5%) and the positive control group with Enbrel® (10 mg/kg, 3× week, sc). A compound of interest was typically tested at 3 doses per os (p.o.). At day 32, randomization between groups was performed with respect with clinical score and animals were therapeutically treated regarding their group until day 47. Body weight and clinical score, were recorded at least twice a week.
# Arthritis is scored according to the method of Khachigian 2006, Lin et al 2007 and Nishida et al. 2004 (Khachigian 2006; Lin et al. 2007; Nishida et al. 2004). […]
# T1 sequence (P57059 whole entry): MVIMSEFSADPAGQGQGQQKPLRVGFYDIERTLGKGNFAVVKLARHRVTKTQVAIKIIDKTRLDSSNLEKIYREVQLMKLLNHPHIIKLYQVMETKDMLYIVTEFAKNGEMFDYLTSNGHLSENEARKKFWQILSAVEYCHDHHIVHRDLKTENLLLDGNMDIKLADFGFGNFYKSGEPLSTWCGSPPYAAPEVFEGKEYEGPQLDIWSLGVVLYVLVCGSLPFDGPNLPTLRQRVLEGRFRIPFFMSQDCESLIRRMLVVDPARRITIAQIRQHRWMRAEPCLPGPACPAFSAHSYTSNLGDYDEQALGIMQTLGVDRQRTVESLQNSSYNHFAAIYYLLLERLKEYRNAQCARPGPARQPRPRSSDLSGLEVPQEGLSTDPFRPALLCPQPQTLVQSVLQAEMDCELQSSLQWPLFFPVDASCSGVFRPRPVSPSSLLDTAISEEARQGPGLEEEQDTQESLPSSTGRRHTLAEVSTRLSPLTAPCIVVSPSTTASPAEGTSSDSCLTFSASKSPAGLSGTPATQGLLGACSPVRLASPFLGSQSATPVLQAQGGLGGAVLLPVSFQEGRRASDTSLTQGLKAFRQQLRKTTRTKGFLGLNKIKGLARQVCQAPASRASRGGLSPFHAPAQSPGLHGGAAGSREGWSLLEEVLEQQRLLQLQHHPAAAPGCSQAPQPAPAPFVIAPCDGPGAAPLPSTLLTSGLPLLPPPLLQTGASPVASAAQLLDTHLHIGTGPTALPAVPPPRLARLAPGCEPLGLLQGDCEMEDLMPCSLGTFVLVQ
Structure (SMILES),IC50 (SIK1) [nM],IC50 (SIK3) [nM],other results
"COc1cc(-c2cnc3cc(C4(C#N)CC4)ccn23)cc(OC(F)F)c1C(=O)NC1CC1 [Cpd 33, 4-[7-(1-cyanocyclopropyl)imidazo[1,2-a]pyridin-3-yl]-N-cyclopropyl-2-(difluoromethoxy)-6-methoxy-benzamide]",100 to 500,0.01 to 10,–
"COc1cc(-c2cnn3cc(C(C)(C)C#N)ccc23)cc(OC(F)F)c1C(=O)N[C@@H]1C[C@@H]1F [Cpd 219, 4-[6-(1-cyano-1-methyl-ethyl)pyrazolo[1,5-a]pyridin-3-yl]-2-(difluoromethoxy)-N-[(1R,2S)-2-fluorocyclopropyl]-6-methoxy-benzamide]",–,–,"clinical score compared to diseased vehicle group (B10.RIII mice, IL-23 EEV; 3 mg/kg p.o. b.i.d.): statistically significant decrease; clinical score compared to the vehicle group (mouse CIA model; 3 mg/kg p.o. b.i.d.): statistically significant decrease"
"COc1cc(-c2cnc3cc(C(C)(C)C#N)ccn23)cc(OC(F)F)c1C(=O)NC1CC1 [Cpd 19, 4-[7-(1-cyano-1-methyl-ethyl)imidazo[1,2-a]pyridin-3-yl]-N-cyclopropyl-2-(difluoromethoxy)-6-methoxy-benzamide]",> 500,0.01 to 10,"clinical score compared to diseased vehicle group (B10.RIII mice, IL-23 EEV; 10 mg/kg p.o. b.i.d.): statistically significant decrease"
"COc1cc(-c2cnc3cc(C4COC4)ccn23)cc(OC(F)F)c1C(=O)NC1CC1 [Cpd 174, N-cyclopropyl-2-(difluoromethoxy)-6-methoxy-4-[7-(oxetan-3-yl)imidazo[1,2-a]pyridin-3-yl]benzamide]",–,–,"clinical score compared to diseased vehicle group (B10.RIII mice, IL-23 EEV; 30 mg/kg p.o. b.i.d.): statistically significant decrease; clinical score compared to the vehicle group (mouse CIA model; 60 mg/kg p.o. b.i.d.): statistically significant decrease"
"COc1cc(-c2cnn3cc(C4(N)CCC4)ccc23)cc(OC(F)F)c1C(=O)N[C@@H]1C[C@@H]1F [Cpd 261, 4-[6-(1-aminocyclobutyl)pyrazolo[1,5-a]pyridin-3-yl]-2-(difluoromethoxy)-N-[(1R,2S)-2-fluorocyclopropyl]-6-methoxy-benzamide]",–,–,"clinical score compared to diseased vehicle group (B10.RIII mice, IL-23 EEV; 50 mg/kg p.o. b.i.d.): statistically significant decrease; clinical score compared to the vehicle group (mouse CIA model; 30 mg/kg p.o. b.i.d.): statistically significant decrease"
"CCC(C)(C#N)c1ccn2c(-c3cc(OC)c(C(=O)NC4CC4)c(OC(F)F)c3)cnc2c1 (stereo not drawn) [Cpd 27, 4-[7-(1-cyano-1-methyl-propyl)imidazo[1,2-a]pyridin-3-yl]-N-cyclopropyl-2-(difluoromethoxy)-6-methoxy-benzamide]",> 500,10 to 100,–
"COc1cc(-c2cnc3cc(C(C)(C)C#N)ccn23)cc(OC)c1C(=O)NC1CC1 [Cpd 28, 4-[7-(1-cyano-1-methyl-ethyl)imidazo[1,2-a]pyridin-3-yl]-N-cyclopropyl-2,6-dimethoxy-benzamide]",> 500,10 to 100,–
